Assays:
panel of 442 kinases [1] = molecular target: T1, panel of 442 kinases (Homo sapiens, UniProt P08631); format: binding; conditions: Compound Concentration 10 µM
T1 construct: purchased KINOMEscan
Excerpt: (§1) We assessed the selectivity of members of this scaffold using the KINOMEscan methodology across a near comprehensive panel of 442 kinases [[18,27]].

panel of 442 kinases [2] = molecular target: T2, panel of 442 kinases (Homo sapiens, UniProt Q6XUX3); format: binding; conditions: Compound Concentration 10 µM
T2 construct: purchased KINOMEscan
T2 sequence (Q6XUX3 1-929): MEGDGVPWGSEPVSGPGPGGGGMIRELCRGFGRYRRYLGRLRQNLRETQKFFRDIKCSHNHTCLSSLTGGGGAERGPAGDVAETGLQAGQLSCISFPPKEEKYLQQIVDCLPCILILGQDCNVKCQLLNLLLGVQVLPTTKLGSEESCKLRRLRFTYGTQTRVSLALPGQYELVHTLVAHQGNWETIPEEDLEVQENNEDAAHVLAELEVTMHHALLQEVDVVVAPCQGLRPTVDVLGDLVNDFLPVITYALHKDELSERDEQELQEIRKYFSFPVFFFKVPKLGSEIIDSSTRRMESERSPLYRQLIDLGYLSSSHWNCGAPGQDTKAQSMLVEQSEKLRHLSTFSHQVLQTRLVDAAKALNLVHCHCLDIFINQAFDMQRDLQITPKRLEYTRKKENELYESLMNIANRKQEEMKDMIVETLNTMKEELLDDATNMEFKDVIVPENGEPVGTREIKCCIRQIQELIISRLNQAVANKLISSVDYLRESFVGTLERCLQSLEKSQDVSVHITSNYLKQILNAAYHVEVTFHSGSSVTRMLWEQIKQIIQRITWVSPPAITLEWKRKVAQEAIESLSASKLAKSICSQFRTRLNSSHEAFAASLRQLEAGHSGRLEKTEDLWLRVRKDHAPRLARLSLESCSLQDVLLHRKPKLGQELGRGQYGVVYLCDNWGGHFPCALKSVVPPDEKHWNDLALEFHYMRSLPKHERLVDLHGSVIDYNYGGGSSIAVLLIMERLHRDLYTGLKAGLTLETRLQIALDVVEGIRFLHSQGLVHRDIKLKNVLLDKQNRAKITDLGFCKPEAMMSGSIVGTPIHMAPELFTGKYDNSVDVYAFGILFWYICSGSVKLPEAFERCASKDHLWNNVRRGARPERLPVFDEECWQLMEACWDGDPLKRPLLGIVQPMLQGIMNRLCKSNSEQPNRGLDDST
Excerpt: as §1

T1 sequence (P08631 whole entry): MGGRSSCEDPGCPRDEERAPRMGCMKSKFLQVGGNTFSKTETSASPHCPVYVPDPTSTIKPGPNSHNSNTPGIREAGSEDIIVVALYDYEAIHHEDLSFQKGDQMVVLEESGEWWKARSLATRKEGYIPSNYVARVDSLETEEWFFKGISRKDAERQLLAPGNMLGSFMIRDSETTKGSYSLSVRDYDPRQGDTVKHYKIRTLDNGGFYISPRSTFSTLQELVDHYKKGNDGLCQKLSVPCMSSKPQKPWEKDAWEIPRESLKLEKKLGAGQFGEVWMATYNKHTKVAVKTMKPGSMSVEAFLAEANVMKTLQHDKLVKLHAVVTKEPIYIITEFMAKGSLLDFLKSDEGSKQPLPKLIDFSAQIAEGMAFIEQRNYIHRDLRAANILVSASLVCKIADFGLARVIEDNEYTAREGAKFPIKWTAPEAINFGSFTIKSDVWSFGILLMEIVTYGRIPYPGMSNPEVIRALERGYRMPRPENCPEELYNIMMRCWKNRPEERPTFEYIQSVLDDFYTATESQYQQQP

Row | SMILES | KINOMEscan: HCK (panel of 442 kinases [1]) | KINOMEscan: RIPK5 (panel of 442 kinases [2])
1 | COc1cc(C(=O)N2CCC(N3CCN(C)CC3)CC2)ccc1Nc1ncc2c(n1)N(C)c1ccccc1C(=O)N2C [15 (LRRK2-IN-1)] | 100 | 16
2 | CCOc1cc(C(=O)N2CCC(N3CCN(C)CC3)CC2)ccc1Nc1ncc2c(n1)N(C1CCCC1)c1ccccc1C(=O)N2C [Compound 26] | 100 | 16
3 | COc1cc(C(=O)N2CCC(N3CCN(C)CC3)CC2)ccc1Nc1ncc2c(n1)N1CCc3cccc(c31)C(=O)N2C [Compound 24] | – | 24
4 | COc1cc(C(=O)N2CCC(N3CCN(C)CC3)CC2)ccc1Nc1ncc2c(n1)N(C1CCCC1)c1ccccc1C(=O)N2C [Compound 25, 11-cyclopentyl-2-((2-methoxy-4-(4-(4-methylpiperazin-1-yl)piperidine-1-carbonyl)phenyl)amino)-5-methyl-5H-benzo[e]pyrimido[5,4-b][1,4]diazepin-6(11H)-one] | 97 | 4.9
